Results from patent US9115143B2, “Substituted indole derivatives as gamma secretase modulators” (Janssen Pharmaceuticals, Inc., priority 2011, dated 2015).

Columns and labels:
Aβtotal = assay: Screening for γ-secretase-modulating activity: Aβtotal in supernatant of SKNBE2 cells carrying hAPP 695 wild type (Alphalisa); format: cell-based, human; details: overnight incubation, Alphalisa on supernatant
Procedure: (§1) Pharmacology A) Screening of the Compounds of the Invention for γ-Secretase-Modulating Activity
(§2) Screening was carried out using SKNBE2 human neuroblastoma cells carrying the hAPP 695—wild type, grown in Dulbecco's Modified Eagle's Medium/Nutrient mixture F-12 (DMEM/NUT-mix F-12) (HAM) provided by Invitrogen (cat no. 10371-029) containing 5% Serum/Fe supplemented with 1% non-essential amino acids, 1-glutamine 2 mM, Hepes 15 mM, penicillin 50 U/mL (units/mL) en streptomycin 50 μg/mL. Cells were grown to near confluency.
(§3) The screening was performed using a modification of the assay as described in Citron et al (1997) Nature Medicine 3: 67. Briefly, cells were plated in a 384-well plate at 10^4 cells/well in Ultraculture (Lonza, BE12-725F) supplemented with 1% glutamine (Invitrogen, 25030-024), 1% non-essential amino acid (NEAA), penicillin 50 U/mL en streptomycin 50 μg/mL in the presence of test compound at different test concentrations. The cell/compound mixture was incubated overnight at 37° C., 5% CO2. The next day the media were assayed by two sandwich immuno-assays, for Aβ42 and Aβtotal.
(§4) Aβtotal and Aβ42 concentrations were quantified in the cell supernatant using the Aphalisa technology (Perkin Elmer). Alphalisa is a sandwich assay using biotinylated antibody attached to streptavidin coated donorbeads and antibody conjugated to acceptor beads. In the presence of antigen, the beads come into close proximity. The excitation of the donor beads provokes the release of singlet oxygen molecules that trigger a cascade of energy transfer in the acceptor beads, resulting in light emission. To quantify the amount of Aβ42 in the cell supernatant, monoclonal antibody specific to the C-terminus of Aβ42 (JRF/cAβ42/26) was coupled to the receptor beads and biotinylated antibody specific to the N-terminus of Aβ (JRF/AβN/25) was used to react with the donor beads. To quantify the amount of Aβ total in the cell supernatant, monoclonal antibody specific to the N-terminus of Aβ (JRF/AβN/25) was coupled to the receptor beads and biotinylated antibody specific to the mid region of Aβ (biotinylated 4G8) was used to react with the donor beads.
(§5) To obtain the values reported in Table 3, the data are calculated as percentage of the maximum amount of amyloid Beta 42 measured in the absence of the test compound. The sigmoidal dose response curves were analyzed using nonlinear regression analysis with percentage of the control plotted against the log concentration of the compound. A 4-parameter equation was used to determine the IC50.

Aβ42 = assay: Screening for γ-secretase-modulating activity: Aβ42 in supernatant of SKNBE2 cells carrying hAPP 695 wild type (Alphalisa); format: cell-based, human; details: overnight incubation, Alphalisa on supernatant
Procedure: as §1, §2, §3, §4, §5

[1] = Homo sapiens, SKNBE2, SKNBE2 human neuroblastoma cells carrying hAPP 695 wild type
[2] = SKNBE2 human neuroblastoma cells carrying hAPP 695 wild type

Row | SMILES | IC50 (Aβtotal; [1]) [µM] | IC50 (Aβ42; [2]) [µM] | IC50 (Aβtotal; [2]) [µM] | IC50 (Aβ42; [1]) [µM]
1 | Cc1cc(F)ccc1C1CCCn2nc(-c3[nH]c4ccc(C#N)cc4c3F)nc21 (single isomer, unassigned) [Compound 181, 3-fluoro-2-[8-(4-fluoro-2-methylphenyl)-5,6,7,8-tetrahydro[1,2,4]triazolo[1,5-a]pyridin-2-yl]-1H-indole-5-carbonitrile] | > 10 | 5.89 |  | 
2 | Cc1cc(F)ccc1C1CCCn2nc(-c3cc4nc(-c5cnn(C)c5)ccc4[nH]3)nc21 (stereo not shown) [Compound 70, 8-(4-fluoro-2-methylphenyl)-5,6,7,8-tetrahydro-2-[5-(1-methyl-1H-pyrazol-4-yl)-1H-pyrrolo[3,2-b]pyridin-2-yl]-[1,2,4]triazolo[1,5-a]pyridine] |  | 1 | > 10 | 
3 | Cc1cc(F)ccc1C1OCCn2nc(-c3cc4cc(-c5cnn(C)c5)ccc4[nH]3)nc21 (stereo not shown) [Compound 107, 8-(4-fluoro-2-methylphenyl)-5,6-dihydro-2-[5-(1-methyl-1H-pyrazol-4-yl)-1H-indol-2-yl]-8H-[1,2,4]triazolo[5,1-c][1,4]oxazine] | > 10 |  |  | 0.148
4 | COc1c(C#N)ccc2[nH]c(-c3nc4n(n3)CCOC4c3cc(C(F)(F)F)ccc3F)cc12 (single isomer, unassigned) [Compound 160, 2-[8-[2-fluoro-5-(trifluoromethyl)phenyl]-5,6-dihydro-8H-[1,2,4]triazolo[5,1-c][1,4]oxazin-2-yl]-4-methoxy-1H-indole-5-carbonitrile] | > 10 | 5.13 |  | 
5 | Cc1cc(F)ccc1C1CCCn2nc(-c3cc4cc(C#N)cnc4[nH]3)nc21 (stereo not shown) [Compound 23, 2-[8-(4-fluoro-2-methylphenyl)-5,6,7,8-tetrahydro[1,2,4]triazolo[1,5-a]pyridin-2-yl]-1H-pyrrolo[2,3-b]pyridine-5-carbonitrile] | > 10 |  |  | 0.589
6 | Cc1cn(-c2ccc3[nH]c(-c4nc5n(n4)CCCC5c4ccc(F)cc4C)nc3c2)cn1 (stereo not shown) [Compound 179, 8-(4-fluoro-2-methylphenyl)-5,6,7,8-tetrahydro-2-[5-(4-methyl-1H-imidazol-1-yl)-1H-benzimidazol-2-yl]-[1,2,4]triazolo[1,5-a]pyridine] | > 10 | 0.407 |  | 
7 | COc1c(C#N)ccc2[nH]c(-c3nc4n(n3)CCOC4c3ccccc3Cl)cc12 (stereo not shown) [Compound 140, 2-[8-(2-chlorophenyl)-5,6-dihydro-8H-[1,2,4]triazolo[5,1-c][1,4]oxazin-2-yl]-4-methoxy-1H-indole-5-carbonitrile] |  | 1.15 | > 10 | 
8 | COc1c(-n2cnc(C)c2)ccc2[nH]c(-c3cn4c(n3)C(c3ccc(F)cc3C)OCC4)cc12 (single isomer, unassigned) [Compound 113, 8-(4-fluoro-2-methylphenyl)-5,6-dihydro-2-[4-methoxy-5-(4-methyl-1H-imidazol-1-yl)-1H-indol-2-yl]-8H-imidazo[2,1-c][1,4]oxazine] |  | 0.151 | > 10 | 
9 | COc1c(C#N)ccc2[nH]c(-c3cn4c(n3)C(c3ccc(F)c(Cl)c3)OCC4)cc12 (stereo not shown) [Compound 155, 2-[8-(3-chloro-4-fluorophenyl)-5,6-dihydro-8H-imidazo[2,1-c][1,4]oxazin-2-yl]-4-methoxy-1H-indole-5-carbonitrile] |  | 1.48 | > 10 | 
10 | Cc1cc(-c2ccc3[nH]c(-c4nc5n(n4)CCCC5c4ccccc4C(F)(F)F)cc3c2)ccn1 (stereo not shown) [Compound 2, 5,6,7,8-tetrahydro-2-[5-(2-methyl-4-pyridinyl)-1H-indol-2-yl]-8-[2-(trifluoromethyl)phenyl]-[1,2,4]triazolo[1,5-a]pyridine] | 7.41 |  |  | 0.022
11 | COc1c(C#N)ccc2[nH]c(-c3cn4c(n3)COCC4c3ccccc3)cc12 (stereo not shown) [Compound 184, 2-(5,6-dihydro-5-phenyl-8H-imidazo[2,1-c][1,4]oxazin-2-yl)-4-methoxy-1H-indole-5-carbonitrile] | 5.37 |  |  | 3.09
12 | COc1c(C#N)ccc2[nH]c(-c3nc4n(n3)CCOC4c3ccc(F)c(Cl)c3)cc12 (stereo not shown) [Compound 144, 2-[8-(3-chloro-4-fluorophenyl)-5,6-dihydro-8H-[1,2,4]triazolo[5,1-c][1,4]oxazin-2-yl]-4-methoxy-1H-indole-5-carbonitrile] | > 10 | 0.214 |  | 

Results, then the molecule that gave them:

Row | IC50 (Aβtotal; [1]) [µM] | IC50 (Aβ42; [2]) [µM] | IC50 (Aβtotal; [2]) [µM] | IC50 (Aβ42; [1]) [µM] | SMILES
13 |  | 0.186 | > 10 |  | COc1c(-n2cnc(C)c2)ccc2[nH]c(-c3cn4c(n3)C(c3ccc(F)cc3C)CCC4)cc12 (single isomer, unassigned) [Compound 79, 8-(4-fluoro-2-methylphenyl)-5,6,7,8-tetrahydro-2-[4-methoxy-5-(4-methyl-1H-imidazol-1-yl)-1H-indol-2-yl]-imidazo[1,2-a]pyridine]
14 |  | 3.47 | > 10 |  | Cc1cc(F)ccc1C1CCCn2nc(-c3cc4cc(C#N)ccc4[nH]3)nc21 (stereo not shown) [Compound 11, 2-[8-(4-fluoro-2-methylphenyl)-5,6,7,8-tetrahydro[1,2,4]triazolo[1,5-a]pyridin-2-yl]-1H-indole-5-carbonitrile]
15 | > 10 | 0.071 |  |  | COc1c(C#N)ccc2[nH]c(-c3nc4n(n3)CCOC4c3c(F)cccc3C(F)(F)F)cc12 (stereo not shown) [Compound 125, 2-[8-[2-fluoro-6-(trifluoromethyl)phenyl]-5,6-dihydro-8H-[1,2,4]triazolo[5,1-c][1,4]oxazin-2-yl]-4-methoxy-1H-indole-5-carbonitrile]
16 |  | 0.028 | > 10 |  | Cc1cc(-c2ccc3[nH]c(-c4nc5n(n4)CCCC5c4ccc(F)cc4C)nc3c2)ccn1 (single isomer, unassigned) [Compound 175, 8-(4-fluoro-2-methylphenyl)-5,6,7,8-tetrahydro-2-[5-(2-methyl-4-pyridinyl)-1H-benzimidazol-2-yl]-[1,2,4]triazolo[1,5-a]pyridine]
17 |  | 1 | > 10 |  | COc1c(C#N)ccc2[nH]c(-c3nc4n(n3)CCOC4c3cccc(F)c3C(F)(F)F)cc12 (single isomer, unassigned) [Compound 134, 2-[8-[3-fluoro-2-(trifluoromethyl)phenyl]-5,6-dihydro-8H-[1,2,4]triazolo[5,1-c][1,4]oxazin-2-yl]-4-methoxy-1H-indole-5-carbonitrile]
18 |  | 0.468 | > 10 |  | COc1c(C#N)ccc2[nH]c(-c3cn4c(n3)C(c3cccc(F)c3C)OCC4)cc12 (stereo not shown) [Compound 42, 2-[8-(3-fluoro-2-methylphenyl)-5,6-dihydro-8H-imidazo[2,1-c][1,4]oxazin-2-yl]-4-methoxy-1H-indole-5-carbonitrile]
19 | > 10 |  |  | 0.049 | COc1c(C#N)ccc2[nH]c(-c3nc4n(n3)CCN(C)C4c3ccc(F)cc3C)cc12 (stereo not shown) [Compound 58, 2-[8-(4-fluoro-2-methylphenyl)-5,6,7,8-tetrahydro-7-methyl[1,2,4]triazolo[1,5-a]pyrazin-2-yl]-4-methoxy-1H-indole-5-carbonitrile]
20 | > 10 | 0.03 |  |  | COc1c(-n2cnc(C)c2)ccc2[nH]c(-c3cn4c(n3)C(c3ccc(F)cc3C)CCC4)cc12 (single isomer, unassigned) [Compound 78, 8-(4-fluoro-2-methylphenyl)-5,6,7,8-tetrahydro-2-[4-methoxy-5-(4-methyl-1H-imidazol-1-yl)-1H-indol-2-yl]-imidazo[1,2-a]pyridine]
21 | > 10 |  |  | 0.151 | CCOc1c(C#N)ccc2[nH]c(-c3nc4n(n3)CCOC4c3ccc(F)cc3C)cc12 (stereo not shown) [Compound 171, 4-ethoxy-2-[8-(4-fluoro-2-methylphenyl)-5,6-dihydro-8H-[1,2,4]triazolo[5,1-c][1,4]oxazin-2-yl]-1H-indole-5-carbonitrile]
22 | > 10 | 0.11 |  |  | Cc1cc(-c2ccc3[nH]c(-c4nc5n(n4)CCCC5c4ccc(F)cc4C)nc3c2)ccn1 (single isomer, unassigned) [Compound 174, 8-(4-fluoro-2-methylphenyl)-5,6,7,8-tetrahydro-2-[5-(2-methyl-4-pyridinyl)-1H-benzimidazol-2-yl]-[1,2,4]triazolo[1,5-a]pyridine]
23 | > 10 | 0.058 |  |  | COc1c(C#N)ccc2[nH]c(-c3cn4c(n3)C(c3ccccc3Cl)OCC4)cc12 (stereo not shown) [Compound 49, 2-[8-(2-chlorophenyl)-5,6-dihydro-8H-imidazo[2,1-c][1,4]oxazin-2-yl]-4-methoxy-1H-indole-5-carbonitrile]
